{"source": "patent US20210210190A1", "about": "“Diagnostic Method” (Amazentis SA, priority 2019, published 2021)", "key": {"[1]": {"experiment": "Study of pomegranate juice and oral urolithin A: urolithin A glucuronide in dried blood spots (Example 3)", "format": "in vivo, human", "settings": "dried blood spot, 24 hours after 500 mg Urolithin A softgel capsule; individual subjects 1-7; listed as UA", "procedure": "A study was conducted in seven subjects. At the beginning of the study a sample of capillary blood via a finger prick was taken from each subject and 15-20 uL of whole blood was dried onto a dried blood sample (DBS) filter paper sample card (Whatman, Little Chalfont, Buckinghamshire, UK). A minimum of 2 spots per sampling were collected for each time-point. At T0 i.e. baseline sample, subjects ingested 80 ml pomegranate juice (freshly prepared/). At 24 hours following pomegranate juice intake, a further dried blood spot sample was taken and 15-20 uL of whole blood was dried onto a DBS filter paper card. Following this, subjects ingested 500 mg of Urolithin A in a softgel capsule and then at 48 hours (or 24 hours following UA intake), a further dried blood spot sample was taken and 15-20 uL of whole blood was dried onto DBS filter paper sample card.\nThis analytical method was developed to analyse whole blood spot samples collected on dry blood spot sample cards (DBS Filter card) in Example 3.\nEach dried blood spot was punched from cards using a 6 mm diameter puncher and transferred into a tube. Afterwards 150 μL of methanol containing the internal standard was added. […]\nThe quantification of UA-glucuronide was performed by column separation with reversed-phase chromatography followed by detection with triple-stage quadrupole MS/MS in the selected reaction monitoring mode."}, "[2]": {"experiment": "Single ascending dose study in healthy elderly subjects: Urolithin A glucuronide in urine (Example 6, Part A)", "format": "in vivo, human", "settings": "mean ± standard error", "procedure": "A single (Part A) and multiple (Part B) dose study of urolithin A was conducted to evaluate the safety, tolerability, pharmacokinetics and pharmacodynamics profile in healthy elderly subjects.\nPart A: The study was a double-blind, randomized, single ascending doses, study in 24 healthy elderly male and female volunteers. Each subject was randomized for two subsequent doses in three cohorts.\n1100 mg soft gel capsule containing 250 mg of urolithin A (as described in Example 2 above). Soft gel capsules were blister-packed in bulk, Labelling was in accordance with local regulatory specifications and requirements.\nPart A: Single oral dose administration on D1 of each period according to the randomisation. The administration took place around 8:00 am with around 200 mL tap water, in sitting position, and under fasting conditions.\nCohort 1 (8 subjects): 250 mg urolithin A (6 subjects) or placebo (2 subjects) capsule soft gel formulation then 2000 mg urolithin A or placebo capsule soft gel formulation. Cohort 2 (8 subjects): 500 mg urolithin A (6 subjects) or placebo (2 subjects) capsule soft gel formulation. Cohort 3 (8 subjects): 1000 mg urolithin A (6 subjects) or placebo (2 subjects) capsule soft gel formulation.\nIn Part A of the study, total urine was collected during the following intervals: 0-4 h, 4-8 h, 8-12 h, 12-24 h and 24-36 h post-dose. The collected urine volume of each collection period was carefully measured by weight and recorded in the eCRF, as well as the exact start and stop time of the collection interval. Each fraction of collected urine was homogenized and 2 aliquots of 5 mL per interval were kept and stored below −80° C. Following a protocol amendment to extend the blood sampling scheme from 36 to 96 h post-dose, additional spot urine samples were taken 72 and 96 h post-dose but urine was not collected quantitatively.\nThe concentrations of Urolithin A and its metabolites in urine was determined using validated LC-MS/MS assays. The limit of quantification (LOQ) was 10 ng/mL for Urolithin A in urine and 50 ng/mL for Urolithin A glucuronide and Urolithin A sulphate in urine."}}, "note": "Several values for one entry are separate records, joined by “and”; a condition that tells them apart may be missing. Identical values can stand only once.", "data": [{"smiles": "O=c1oc2cc(O)ccc2c2ccc(O)cc12", "note": "[Urolithin A]", "values": [{"measurement": "500 mg single UA dosing 24 h UA levels", "setting": "[1]", "value": "153 ng/mL and 93.0 ng/mL and 98.0 ng/mL and 125 ng/mL and 134 ng/mL and 173 ng/mL"}, {"measurement": "Urolithin A glucuronide in urine", "setting": "[2]; 250 mg dose, Predose", "value": "4,114 ± 1,261 ng/mL"}, {"measurement": "Urolithin A glucuronide in urine", "setting": "[2]; 250 mg dose, T0-T4 h", "value": "8,536 ± 1,394 ng/mL"}, {"measurement": "Urolithin A glucuronide in urine", "setting": "[2]; 250 mg dose, T4 h-T8 h", "value": "31,617 ± 7,637 ng/mL"}, {"measurement": "Urolithin A glucuronide in urine", "setting": "[2]; 250 mg dose, T8 h-T12 h", "value": "40,453 ± 9,275 ng/mL"}, {"measurement": "Urolithin A glucuronide in urine", "setting": "[2]; 250 mg dose, T12 h-T24 h", "value": "62,817 ± 8,454 ng/mL"}, {"measurement": "Urolithin A glucuronide in urine", "setting": "[2]; 250 mg dose, T24 h-T36 h", "value": "33,962 ± 8,708 ng/mL"}, {"measurement": "Urolithin A glucuronide in urine", "setting": "[2]; 500 mg dose, Predose", "value": "4,114 ± 1,261 ng/mL"}, {"measurement": "Urolithin A glucuronide in urine", "setting": "[2]; 500 mg dose, T0-T4 h", "value": "40,167 ± 6,802 ng/mL"}, {"measurement": "Urolithin A glucuronide in urine", "setting": "[2]; 500 mg dose, T96 spot urine", "value": "8,720 ± 3,113 ng/mL"}, {"measurement": "Urolithin A glucuronide in urine", "setting": "[2]; 500 mg dose, T4 h-T8 h", "value": "86,758 ± 12,051 ng/mL"}, {"measurement": "Urolithin A glucuronide in urine", "setting": "[2]; 500 mg dose, T8 h-T12 h", "value": "63,800 ± 9,043 ng/mL"}, {"measurement": "Urolithin A glucuronide in urine", "setting": "[2]; 500 mg dose, T12 h-T24 h", "value": "81,125 ± 10,792 ng/mL"}, {"measurement": "Urolithin A glucuronide in urine", "setting": "[2]; 500 mg dose, T24 h-T36 h", "value": "44,242 ± 4,631 ng/mL"}, {"measurement": "Urolithin A glucuronide in urine", "setting": "[2]; 500 mg dose, T72 h spot urine", "value": "15,706 ± 3,751 ng/mL"}, {"measurement": "Urolithin A glucuronide in urine", "setting": "[2]; 1000 mg dose, Predose", "value": "4,114 ± 1,261 ng/mL"}, {"measurement": "Urolithin A glucuronide in urine", "setting": "[2]; 1000 mg dose, T0-T4 h", "value": "70,492 ± 12,094 ng/mL"}, {"measurement": "Urolithin A glucuronide in urine", "setting": "[2]; 1000 mg dose, T96 spot urine", "value": "16,335 ± 3,897 ng/mL"}, {"measurement": "Urolithin A glucuronide in urine", "setting": "[2]; 1000 mg dose, T4 h-T8 h", "value": "76,417 ± 10,635 ng/mL"}, {"measurement": "Urolithin A glucuronide in urine", "setting": "[2]; 1000 mg dose, T8 h-T12 h", "value": "64,967 ± 8,075 ng/mL"}, {"measurement": "Urolithin A glucuronide in urine", "setting": "[2]; 1000 mg dose, T12 h-T24 h", "value": "107,983 ± 17,683 ng/mL"}, {"measurement": "Urolithin A glucuronide in urine", "setting": "[2]; 1000 mg dose, T24 h-T36 h", "value": "59,575 ± 9,560 ng/mL"}, {"measurement": "Urolithin A glucuronide in urine", "setting": "[2]; 1000 mg dose, T72 h spot urine", "value": "29,412 ± 5,717 ng/mL"}, {"measurement": "Urolithin A glucuronide in urine", "setting": "[2]; 2000 mg dose, Predose", "value": "4,114 ± 1,261 ng/mL"}, {"measurement": "Urolithin A glucuronide in urine", "setting": "[2]; 2000 mg dose, T0-T4 h", "value": "39,500 ± 6,033 ng/mL"}, {"measurement": "Urolithin A glucuronide in urine", "setting": "[2]; 2000 mg dose, T96 spot urine", "value": "38,487 ± 12,858 ng/mL"}, {"measurement": "Urolithin A glucuronide in urine", "setting": "[2]; 2000 mg dose, T4 h-T8 h", "value": "65,317 ± 10,853 ng/mL"}, {"measurement": "Urolithin A glucuronide in urine", "setting": "[2]; 2000 mg dose, T8 h-T12 h", "value": "50,450 ± 5,793 ng/mL"}, {"measurement": "Urolithin A glucuronide in urine", "setting": "[2]; 2000 mg dose, T12 h-T24 h", "value": "114,817 ± 12,123 ng/mL"}, {"measurement": "Urolithin A glucuronide in urine", "setting": "[2]; 2000 mg dose, T24 h-T36 h", "value": "60,533 ± 12,216 ng/mL"}, {"measurement": "Urolithin A glucuronide in urine", "setting": "[2]; 2000 mg dose, T72 h spot urine", "value": "70,567 ± 17,054 ng/mL"}]}]}
